These results are taken from patent publication US9890195B2, “MK2 inhibitor compositions and methods to enhance neurite outgrowth, neuroprotection, and nerve regeneration” (Purdue Research Foundation, priority 2009, dated 2018).

This series relates to mixed cortical cultures comprising neurons, astrocytes, and microglia. The series can be described thus: Immunocytochemistry/cell imaging of mixed cortical cultures treated with MK2i and TNF-α. In kind it is cell-based, Sprague-Dawley rat. The settings on record: for morphological effects on neurons, astrocytes, microglia (FIG. 3): no TNF-α. The protocol: The effect of MK2i on neuronal cell death and microglical activation was investigated by treating 1-week old mixed cortical cultures comprising neurons, astrocytes, and microglia with the MK2i peptide […] [SEQ ID NO: 33]. Primary Cortical Cell Culture
Embryonic rat cortical tissue was obtained immediately following removal of embryos from the rat's abdomen. E17 Sprague-Dawley rat cortical tissue was placed in a 50 ml conical tube containing 5 ml of Solution 1 (NaCl 7.24 g/L; KCl 0.4 g/L; NaH2PO4 0.14 g/L; Glucose 2.61 g/L; Hepes 5.96 g/L; MgSO4 0.295 g/L; Bovine Serum Albumin 3 g/L). Under sterile conditions, 18 μl of trypsin solution (7.5 mg/ml in 0.9% saline) was added and tissue was passed through a 5-ml pipet several times to disassociate tissue. After the conical tube was placed in a 37° C. water bath for 20 minutes, 100 μl of trypsin inhibitor/DNAse solution (2.5 mg/ml trypsin inhibitor, 400 μg/ml DNase in 0.9% saline) was added to the tube and tissue was pipetted several times with a 5-ml pipet. Tissue was centrifuged at 1,000 rpm for 5 minutes at room temperature and supernatant was poured off. Cells were re-suspended in 16 ml of Hibernate E (BrainBits, Springfield, Ill.) and 100 μl of trypsin inhibitor/DNAse solution and pipetted up and down several times. Cells were filtered through a cell strainer and centrifuged at 1,400 rpm for 5 minutes at room temperature. Supernatant was poured off and cells were re-suspended in media. Primary cells were then plated in poly-D-lysine coated 96-well plates at a seeding density of 625,000 cells/cm^2 and incubated for 7-9 days at 37° C. After 7-9 days, cortical cells were treated with 5 ng/ml or 10 ng/ml of TNF-α to activate microglia. Cells then were treated with 0, 0.5, 1, or 3 mM MK2i peptide […] [SEQ ID NO: 33] for 4 hours, 8 hours, and 24 hours. After treatment, media was removed and stored at −20° C.
In preparation for staining mixed cortical cells, cell media was replaced with phosphate-buffered 4% formaldehyde solution for 5 minutes, followed by three washes using HBHS solution (HEPES-buffered Hank's saline containing 10 mg/L sodium azide, pH 7.4). Blocking solution, consisting of 10% normal goat serum in HBHS, then was applied for 30 minutes, followed by three washes with HBHS. Microglia, astrocytes, and neurons were labeled using antibodies against ionized calcium binding adaptor molecule 1 (Iba1, Wako), glial fibrillary acidic protein (GFAP, Millipore), and β-3-tubulin (β3tub, Covance), respectively. Antibodies were applied for 2 hours, at a dilution of 1:400 in HBHS. After two 10 minute washes and one 30 minute wash, secondary antibodies were applied. […]

Where no end group is shown, it is not given here.

With YARAAARQARAKALARQLGVAA-NH2 [MK2i], the “suppression of TNF-α-induced neuronal cell damage (FIG. 4)” value (5 ng/ml and 10 ng/ml TNF-α, 3 mM MK2i, which also resulted in neuronal cell damage) is “not maintained”. Besides, the “morphological effects on neurons, astrocytes, microglia (FIG. 3)” value by setting is: (0.5 mM and 1.0 mM MK2i (below 3 mM)) “Minimal morphological effects”; (3 mM MK2i) “increased neuronal and astrocytic cell damage, as well as microglial proliferation”. Also, the “astrocyte damage (FIG. 6)” value (3 mM MK2i) is “damage to astrocytes”.
